Measurements taken from patent US9057082B2, “Generation of methane from hydrocarbon bearing materials” (Transworld Technologies Inc., priority 2004, dated 2015).

System: anaerobic microbial consortium or consortia indigenous to the coal
Assay: Hydrogen gas accumulated in headspace of amended Dietz coal slurries
Details: approximately 134 days of incubation
Source text: Core samples from the Tongue River area in the northwest portion of the Powder River Basin, Dietz coal seam, were utilized for these experiments. The core was collected in the field in a manner that prevented oxygen exposure by placing it into a steel canister that was purged with argon. Gas in the core used for the experiments described herein was extensively desorbed during long-term storage and previous use.
Coal samples were passed through a small jaw crusher twice resulting in pulverized coal (to yield a particle size similar to that of granulated sugar) that was measured into serum bottles (5 g per bottle); manipulations were carried out in an anaerobic environment. […]
Bromoethanesulfonic acid (BESA), a methanogen inhibitor, was added to selected incubations. […] Hydrogen production in the amended slurries relative to sterile coal slurries was measured to identify the degree of stimulation.
After approximately 134 days of incubation, all of the coal slurries were sampled for the aqueous phase (0.5 of 10 ml) and for gas analysis including hydrogen, methane, carbon dioxide, radioactive methane, and radioactive carbon dioxide. Methane and carbon dioxide were determined using a Hewlett Packard 5890 gas chromatograph equipped with a thermal conductivity detector. Radiolabeled methane and carbon dioxide were determined using a gas proportional counter (Innus Systems, Tampa, Fla.). […]

## Bromoethanesulfonic acid [BESA]
  hydrogen gas accumulation in the headspace, result in words: Hydrogen accumulated to the greatest extent
